Reference: patent US20120165319A1, “INHIBITORS OF INTERLEUKIN-1 BETA CONVERTING ENZYME” (VERTEX PHARMACEUTICALS INCORPORATED, priority 1995, published 2012)
Read-outs that look alike come from different tables or passages of the source. Blank lines part the entries; values can stand above or below the compound they belong to.

Columns and labels:
ICE = biological target: T1, ICE (Homo sapiens, UniProt P29466); experiment: Enzyme assay with UV-visible substrate (visible ICE assay, Succinyl-Tyr-Val-Ala-Asp-pNitroanilide); type: biochemical
T1 sequence (P29466 120-297 limits assumed): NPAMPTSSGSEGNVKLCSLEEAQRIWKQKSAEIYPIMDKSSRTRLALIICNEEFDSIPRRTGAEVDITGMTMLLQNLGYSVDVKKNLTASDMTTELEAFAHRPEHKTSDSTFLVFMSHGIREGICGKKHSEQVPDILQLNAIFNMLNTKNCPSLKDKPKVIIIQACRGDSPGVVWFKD
T1 sequence (P29466 317-404 limits assumed): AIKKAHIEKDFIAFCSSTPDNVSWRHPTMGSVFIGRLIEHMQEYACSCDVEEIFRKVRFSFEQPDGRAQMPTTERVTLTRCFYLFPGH
How it was run: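 ICE preincubated with inhibitor in DMSO for 15 min at room temperature, then Suc-Tyr-Val-Ala-Asp-pNA added. pNA release read at 405-603 nm for 20 min at 37 °C, rate from linear fit in mOD/min. Ki and inhibition mode from fits of rates at varying inhibitor concentrations to standard kinetic equations.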

[1] = test system: IL-1β production, LPS-challenged mice; experiment: In vivo acute assay for efficacy as anti-inflammatory agent: LPS-induced IL-1β production in mice; set-up: species or system mouse; conditions: for inhibition at 50 mg/kg: Mus musculus, po, read-out: percent inhibition of IL-1β production; for inhibition at 50 mg/kg / percent inhibition of IL-1β production: LPS challenged mice, compound PO, 50 mg/kg
Description: In Vivo Acute Assay for Efficacy as Anti-Inflammatory Agent
LPS-Induced IL-1β Production.
Efficacy of 214e and 217e was evaluated in CD1 mice (n=6 per condition) challenged with LPS (20 mg/kg IP). […] Blood was collected seven hours after LPS challenge. Serum IL-1β levels were measure by ELISA. […] Similar results were obtained in a second experiment. […] However, a clear dose response was not apparent.
Compounds 214e and 217e (50 mg/kg) were also administered by oral gavage to assess absorption.
The efficacy of analogs of 214e were also evaluated in LPS challenged mice after IP administration (FIG. 9) and PO administration (FIG. 10).
[…] The protocol is described in Example 7.

IL-1β, human whole blood = experiment: Whole blood assay for IL-1β production; type: cell-based; conditions: read-out: Whole human blood IC50
How it was run: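 IL-1β was quantified by ELISA in plasma diluted 1:200. The plasma came from EDTA-anticoagulated human whole blood incubated at 30 °C for 16-18 h with LPS (final 5.0 ng/ml) plus a saline serial dilution of compound. Controls were no-LPS, no-inhibitor and highest-vehicle.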

[2] = In vivo rat clearance assay; conditions: for clearance: plasma, iv
Description: In Vivo Rat Clearance Assay
Cannulations of the jugular and carotid vessels of rats under anesthesia were performed one day prior to the pharmacokinetic study. M. J. Free, R. A. Jaffee; ‘Cannulation techniques for the collection blood and other bodily fluids’; in: Animal Models; p. 480-495; N. J. Alexander, Ed.; Academic Press; (1978). Drug (10 mg/mL) was administered via the jugular vein in a vehicle usually consisting of: propylene glycol/saline, containing 100 mM sodium bicarbonate in a 1:1 ratio. Animals were dosed with 10-20 mg drug/kg and blood samples were drawn at 0, 2, 5, 7, 10, 15, 20, 30, 60, and 90 minutes from an indwelling carotid catheter. The blood was centrifuged to plasma and stored at −20° C. until analysis. Pharmacokinetic analysis of data was performed by non-linear regression using standard software such as RStrip (MicroMath Software, UT) and/or Pcnonlin (SCI Software, NC) to obtain clearance values.
Rat plasma was extracted with an equal volume of acetonitrile (containing 0.1% TFA). Samples were then centrifuged at approximately 1,000×g and the supernatant analyzed by gradient HPLC. A typical assay procedure is described below.
A standard curve was run at 20, 10, 5, 2 and 1 μg/mL concentrations.

[3] = test system: IL-1β, human peripheral blood mononuclear cells (PBMC); experiment: PBMC cell assay: IL-1β assay with human PBMC or enriched adherent mononuclear cells, LPS-stimulated; type: cell-based
How it was run: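 Mature IL-1β is measured by ELISA in supernatants after 16–18 hr at 37 °C, 5% CO2, with LPS (5 ng/ml final) and test compound (0.1% DMSO final). Cells are human PBMC (6×10^6 cells/ml) or plate-adherent mononuclear cells (2.5−3.0×10^5 per well), and the 5–6 compound concentrations span the ICE Ki.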

[4] = 0 h, administered 0 h relative to time of LPS challenge
[5] = 1 h, administered +1 h relative to time of LPS challenge
[6] = 2 h, administered −2 h relative to time of LPS challenge
[7] = Homo sapiens, PBMC, * = values obtained upon reassay
[8] = % inhibition of IL-β production, LPS-challenged mice, 50 mg/kg (Table 3)
[9] = * = values obtained upon reassay

Structure (SMILES): CCOC(=O)CC(=COC(C)=O)NC(=O)[C@@H]1CCCN2C(=O)CC[C@H](NC(=O)c3ccccc3)C(=O)N12 [Compound 2100j, [3S(1S,9S)]3-(9-Benzoylamino-6,10-dioxo-1,2,3,4,7,8,9,10-octahydro-6H-pyridazino[1,2-a][1,2]diazepine-1-carboxamido)-4-acetoxy-3-butenoic acid ethyl ester]
Ki (ICE; Table 17): 30000 nM | inhibition at 50 mg/kg [1, 4]: 0% | inhibition at 50 mg/kg [1, 5]: 33% | inhibition at 50 mg/kg ([1]; 1 h, administered −1 h relative to time of LPS challenge): 41% | inhibition at 50 mg/kg [1, 6]: 48% | IC50 (IL-1β, human whole blood; Homo sapiens, Table 17): 12000 nM

Structure (SMILES): O=C[C@H](CC(=O)O)NC(=O)[C@@H]1CCCN2C(=O)CC[C@H](NC(=O)c3ccc4ncccc4c3)C(=O)N12 [Compound 438]
clearance ([2]; 10-20 mg/kg): 22 mL/min/kg | Ki (ICE; Table 5): 28 nM | IC50 [3, 7]: 1000 nM | IP % Inhibition [1, 8]: 40% | POS Inhibition ([1]; % inhibition of IL-β production, LPS-challenged mice, PO, 50 mg/kg (Table 3)): 13%

clearance ([2]; 10-20 mg/kg): > 100 mL/min/kg
Structure (SMILES): COc1cccc2nc(C(=O)[C@H](CC(=O)O)NC(=O)CN3C(=O)[C@@H](NC(=O)CCc4ccccc4)CN(C(=O)CCc4ccccc4)c4ccccc43)oc12 [Compound 108b, 4-(7-Methoxybenzoxazol-2-yl)-4-oxo-3(S)-{2-[2-oxo-5-(3-phenylpropionyl)-3(S)-(3-phenylpropionylamino)-2,3,4,5-tetrahydrobenzo[b][1,4]diazepin-1-yl]-acetylamino}butyric acid]

Structure (SMILES): CC(=O)Nc1cccc(C(=O)N[C@H]2CCC(=O)N3CCC[C@@H](C(=O)N[C@H]4CC(=O)OC4OCc4ccccc4)N3C2=O)c1 (mixture of isomers) [Compound 213o, [1S,9S(2RS,3S)]9-[(3-Acetamido)benzamido]-N-(2-benzyloxy-5-oxotetrahydrofuran-3-yl)-6,10-dioxo-1,2,3,4,7,8,9,10-octahydro-6H-pyridazino[1,2-a][1,2]diazepine-1-carboxamide]
IC50 ([3]; Table 17): 5000 nM | percent inhibition of IL-1β production ([1]; administered 0 h relative to time of LPS challenge): 8% | percent inhibition of IL-1β production ([1]; administered −2 h relative to time of LPS challenge): 4% | IC50 (IL-1β, human whole blood; Table 17): 3300 nM

Structure (SMILES): COc1ccc(C(=O)N[C@H]2CCC(=O)N3CCC[C@@H](C(=O)N[C@H](C=O)CC(=O)O)N3C2=O)cc1 [Compound 452]
clearance ([2]; 10-20 mg/kg): 27.3 mL/min/kg | Ki (ICE; Table 5): 4.5 nM | IC50 [3, 9]: 800 nM | IC50 [3, 7]: 600 nM | inhibition at 50 mg/kg [1, 4]: 89% | inhibition at 50 mg/kg [1, 5]: 70% | inhibition at 50 mg/kg [1, 6]: 28%

clearance ([2]; 10-20 mg/kg): 36 mL/min/kg | Ki (ICE; Table 5): 180 nM
Structure (SMILES): O=C[C@H](CC(=O)O)NC(=O)[C@@H]1CCCN2C(=O)CC[C@H](NS(=O)(=O)c3ccccc3)C(=O)N12 [Compound 427]
IC50 [3, 7]: 4500 nM

Structure (SMILES): Nc1ccc(C(=O)N[C@H]2CCC(=O)N3CCC[C@@H](C(=O)N[C@H](C=O)CC(=O)O)N3C2=O)cc1Cl [Compound 481]
clearance ([2]; 10-20 mg/kg): 34 mL/min/kg | Ki (ICE; Table 5): 1.2 nM | inhibition at 50 mg/kg [1, 4]: 0% | inhibition at 50 mg/kg [1, 6]: 27% | IC50 (IL-1β, human whole blood; [9]): 500 nM | IC50 (IL-1β, human whole blood; Homo sapiens, * = values obtained upon reassay): 600 nM

Structure (SMILES): O=C[C@H](CC(=O)O)NC(=O)[C@@H]1CCCN2C(=O)CC[C@H](NC(=O)C(=O)c3ccccc3)C(=O)N12 [Compound 2002, [3S(1S,9S)]3-(9-Benzoylformylamino-6,10-dioxo-1,2,3,4,7,8,9,10-octahydro-6H-pyridazino[1,2-a][1,2]-diazepine-1-carboxamido)-4-oxobutanoic acid]
clearance ([2]; 10-20 mg/kg): 32 mL/min/kg | Ki (ICE; Table 5): 4 nM | IC50 [3, 9]: 860 nM | IC50 [3, 7]: 810 nM | IP % Inhibition [1, 8]: 78% | inhibition at 50 mg/kg [1, 4]: 87% | inhibition at 50 mg/kg [1, 6]: 5%

clearance ([2]; Table 17): 35 mL/min/kg | Ki (ICE; Table 17): 500 nM
Structure (SMILES): COc1ccccc1NC(=O)NN1CCC(=O)N2CCC[C@@H](C(=O)N[C@H](C=O)CC(=O)O)N2C1=O [Compound 265d, [3S(4S)]3-[6,10-Dioxo-7-(2-methoxyphenylureido)-1,2,3,4,7,8,9,10-octahydro-6H-pyridazino[1,2-a][1,2,4]-triazepine-4-carboxamido]-4-oxobutanoic acid]
IC50 ([3]; Homo sapiens, PBMC, Table 17): 1500 nM

clearance ([2]; Table 17): 32 mL/min/kg | Ki (ICE; Table 17): 1100 nM
Structure (SMILES): COc1cccc(NC(=O)NN2CCC(=O)N3CCC[C@@H](C(=O)N[C@H](C=O)CC(=O)O)N3C2=O)c1 [Compound 265c, [3S(4S)]3-[6,10-Dioxo-7-(3-methoxyphenylureido)-1,2,3,4,7,8,9,10-octahydro-6H-pyridazino[1,2-a][1,2,4]triazepine-4-carboxamido]-4-oxobutanoic acid]
IC50 ([3]; Homo sapiens, PBMC, Table 17): 4500 nM

Clearance Rat, i.v. ([2]; Table 17): 41 mL/min/kg
Structure (SMILES): CS(=O)(=O)N[C@H]1CCC(=O)N2CCC[C@@H](C(=O)N[C@@H](CC(=O)O)C(=O)COc3cccnc3)N2C1=O [Compound 283b, [3S(1S,9S)]3-(6,10-Dioxo-9-methanesulphonamido-1,2,3,4,7,8,9,10-octahydro-6H-pyridazino[1,2-a][1,2]diazepine-1-carboxamido)-4-oxo-5(3-pyridyloxy)pentanoic acid]
IC50 ([3]; Table 17): 1750 nM
